Laboratory results reported in US11173145B2, “Compounds useful as inhibitors of indoleamine 2,3-dioxygenase and/or tryptophan dioxygenase” (Board of Regents, The University of Texas System, priority 2017, dated 2021).

Target: T1, IDO1 (Homo sapiens, UniProt P14902)
T1 construct: endogenous in cells; host or cells: HeLa cells (ATCC), IFNgamma-induced
Assay: IDO1 cell-based assay (HeLa cells, IFNgamma-induced, N-formylkynurenine/L-tryptophan by RFMS)
Settings: 10 ng/mL IFNgamma, 24 hours
Outline: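 HeLa cells stimulated with 10 ng/mL IFNgamma and exposed to compound (0.5% DMSO final) for 24 h at 37 °C. Conditioned media deproteinized, then N-formylkynurenine and L-tryptophan quantified by RapidFire MS with deuterated tryptophan internal standard; IC50 by curve fitting. Viability checked by CellTiter-Glo.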

T1 sequence (P14902 whole entry): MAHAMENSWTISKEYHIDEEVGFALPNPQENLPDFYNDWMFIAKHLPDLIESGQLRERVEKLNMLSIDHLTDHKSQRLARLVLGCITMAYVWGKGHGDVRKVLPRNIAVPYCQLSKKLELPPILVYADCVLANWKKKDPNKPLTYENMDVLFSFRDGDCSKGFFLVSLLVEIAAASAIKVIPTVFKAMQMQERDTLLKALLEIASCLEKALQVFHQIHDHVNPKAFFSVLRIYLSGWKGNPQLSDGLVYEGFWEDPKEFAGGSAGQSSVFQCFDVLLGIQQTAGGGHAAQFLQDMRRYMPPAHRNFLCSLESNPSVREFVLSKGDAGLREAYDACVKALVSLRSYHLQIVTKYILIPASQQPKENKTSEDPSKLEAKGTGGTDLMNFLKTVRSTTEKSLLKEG

| SMILES | IC50 [nM] |
| --- | --- |
| CCC(NC(=O)c1ccc(Cl)cc1)[C@H]1[C@@H]2C[C@@H](NS(=O)(=O)C3(C)CC3)C[C@@H]21 (stereo partly drawn) [Compound 160, 4-chloro-N-(1-((1R,3s,5S,6r)-3-((1-methylcyclopropane)-1-sulfonamido)bicyclo[3.1.0]hexan-6-yl)propyl)benzamide] | 200 to 2000 |
| CC[C@@H](NC(=O)c1ccc(Cl)cc1)[C@H]1[C@@H]2C[C@@H](n3cc(C(=O)O)cn3)C[C@@H]21 [Compound 328, 1-((1R,3S,5S,6r)-6-((R)-1-(4-chlorobenzamido)propyl)bicyclo[3.1.0]hexan-3-yl)-1H-pyrazole-4-carboxylic acid] | 200 to 2000 |
| CC[C@@H](NC(=O)c1ccc(Cl)cc1)[C@H]1[C@@H]2C[C@@H](n3cccn3)C[C@@H]21 [Compound 324, N-((R)-1-((1R,3S,5S,6r)-3-(1H-pyrazol-1-yl)bicyclo[3.1.0]hexan-6-yl)propyl)-4-chlorobenzamide] | < 200 |
| O=C(Cc1ccc(Cl)cc1)N[C@H]1[C@@H]2C[C@@H](Oc3ncnc4ccc(F)cc34)C[C@@H]21 [Compound 61, 2-(4-chlorophenyl)-N-((1R,3s,5S,6r)-3-((6-fluoroquinazolin-4-yl)oxy)bicyclo[3.1.0]hexan-6-yl)acetamide] | < 200 |
| CCC(NC(=O)c1ccc(Cl)cc1)[C@H]1[C@@H]2C[C@@H](NC(=O)c3ccc4ccccc4n3)C[C@@H]21 (stereo partly drawn) [Compound 118, N-((1R,3s,5S,6r)-6-(1-(4-chlorobenzamido)propyl)bicyclo[3.1.0]hexan-3-yl)quinoline-2-carboxamide] | < 200 |
| CC[C@@H](NC(=O)c1ccc(Cl)cc1)[C@H]1[C@@H]2C[C@@H](c3ncnc4ccc(F)cc34)C[C@@H]21 [Compound 279, 4-chloro-N-((R)-1-((1R,3S,5S,6r)-3-(6-fluoroquinazolin-4-yl)bicyclo[3.1.0]hexan-6-yl)propyl)benzamide] | < 200 |
| CC[C@@H](NC(=O)c1cccc(Cl)c1)[C@H]1[C@@H]2C[C@@H](n3cnc4cc(F)c(F)cc43)C[C@@H]21 [Compound 310, 3-chloro-N-((R)-1-((1R,3S,5S,6r)-3-(5,6-difluoro-1H-benzo[d]imidazol-1-yl)bicyclo[3.1.0]hexan-6-yl)propyl)benzamide] | < 200 |

Results, then the compound that gave them:

| IC50 [nM] | SMILES |
| --- | --- |
| < 200 | CCC(NC(=O)c1ccc(C#N)cc1)[C@H]1[C@@H]2C[C@@H](Oc3cnnc4ccccc34)C[C@@H]21 (stereo partly drawn) [Compound 80, N-(1-((1R,3s,5S,6r)-3-(cinnolin-4-yloxy)bicyclo[3.1.0]hexan-6-yl)propyl)-4-cyanobenzamide] |
| < 200 | CCC(NC(=O)c1ccc(Cl)cc1)[C@H]1[C@@H]2C[C@@H](Oc3cc(=O)n(C)c4ccccc34)C[C@@H]21 (stereo partly drawn) [Compound 50, 4-chloro-N-(1-((1R,3s,5S,6r)-3-((1-methyl-2-oxo-1,2-dihydroquinolin-4-yl)oxy)bicyclo[3.1.0]hexan-6-yl)propyl)benzamide] |
| < 200 | CCC(NC(=O)c1ccc(Cl)cc1)[C@H]1[C@@H]2C[C@@H](Oc3cccnc3Cl)C[C@@H]21 (stereo partly drawn) [Compound 60, 4-chloro-N-(1-((1R,3s,5S,6r)-3-((2-chloropyridin-3-yl)oxy)bicyclo[3.1.0]hexan-6-yl)propyl)benzamide] |
| < 200 | CC[C@@H](NC(=O)c1ccc(C#N)cc1)[C@H]1[C@@H]2C[C@@H](n3c(C)nc4ccc(Cl)cc43)C[C@@H]21 [Compound 294, N-((R)-1-((1R,3S,5S,6r)-3-(6-chloro-2-methyl-1H-benzo[d]imidazol-1-yl)bicyclo[3.1.0]hexan-6-yl)propyl)-4-cyanobenzamide] |
| < 200 | CC[C@@H](NC(=O)Nc1ccc(Cl)c(F)c1)[C@H]1[C@@H]2C[C@@H](n3cnc4cc(F)c(F)cc43)C[C@@H]21 [Compound 349, 1-(4-chloro-3-fluorophenyl)-3-((R)-1-((1R,3S,5S,6r)-3-(5,6-difluoro-1H-benzo[d]imidazol-1-yl)bicyclo[3.1.0]hexan-6-yl)propyl)urea] |
